Laboratory results published in article PMC9396645 (Frontiers in Chemistry, 2022).

Test system: prostate cancer patients
Test: PSMA-PET/CT of prostate cancer patients
Format: in vivo, human
Conditions: patient PET/CT, 20 nmol
Protocol: Diagnostic PSMA-PET/computed tomography (CT) examinations were performed 1 and 3 h after antecubital injection of 339 MBq/20 nmol ^68Ga-CA028 or 295 MBq/20 nmol ^68Ga-CA030 per patient, respectively. The method for assessing the biodistribution was performed as previously described by Afshar-Oromieh et al. ([Afshar-Oromieh et al., 2015b]). Applying the clinical standard software Syngo (Siemens), which was used to define the VOIs in the PET images, the activity distributions of the source organs was determined. This reference ([Afshar-Oromieh et al., 2015b]) was also used as a standard of reference for ^68Ga-PSMA-617 (Table 3).

SUV mean Bone metastasis (first listed bone metastasis, 1 h p.i.): 4.5
SUV mean Bone metastasis (first listed bone metastasis, 3 h p.i.): 4.1
SUV mean Lymph node (first listed lymph node, 1 h p.i.): 13.5
SUV mean Lymph node (first listed lymph node, 3 h p.i.): 10.7
SUV mean Blood pool, mediastinal (1 h p.i.): 3.2
SUV mean Colon (1 h p.i.): 4.9
SUV mean Gluteal muscle (1 h p.i.): 0.7
SUV mean Kidneys (1 h p.i.): 13.8
SUV mean Lacrimal gland (1 h p.i.): 7.4
SUV mean Liver (1 h p.i.): 4.3
SUV mean Lung metastasis (1 h p.i.): 5.7
SUV mean Nasal mucosa (1 h p.i.): 2.9
SUV mean Parotid gland (1 h p.i.): 11.0
SUV mean Proximal small intestine (1 h p.i.): 8.4
SUV mean Spleen (1 h p.i.): 5.1
SUV mean Sublingual gland (1 h p.i.): 3.8
SUV mean Submandibular gland (1 h p.i.): 14.4
SUV mean Blood pool, mediastinal (3 h p.i.): 2.9
SUV mean Colon (3 h p.i.): 4.2
SUV mean Gluteal muscle (3 h p.i.): 0.4
SUV mean Kidneys (3 h p.i.): 10.9
SUV mean Lacrimal gland (3 h p.i.): 7.6
SUV mean Liver (3 h p.i.): 1.8
SUV mean Lung metastasis (3 h p.i.): 4.7
SUV mean Nasal mucosa (3 h p.i.): 3.5
SUV mean Parotid gland (3 h p.i.): 8.0
SUV mean Proximal small intestine (3 h p.i.): 10.4
SUV mean Spleen (3 h p.i.): 2.5
SUV mean Sublingual gland (3 h p.i.): 2.8
SUV mean Submandibular gland (3 h p.i.): 8.9
SUV mean Bone metastasis (second listed bone metastasis, 1 h p.i.): 6.9
SUV mean Bone metastasis (second listed bone metastasis, 3 h p.i.): 5.7
SUV mean Lymph node (second listed lymph node, 1 h p.i.): 17.0
SUV mean Lymph node (second listed lymph node, 3 h p.i.): 25.4
SUV mean Bone metastasis (third listed bone metastasis, 1 h p.i.): 4.6
SUV mean Bone metastasis (third listed bone metastasis, 3 h p.i.): 4.4
SUV mean Lymph node (third listed lymph node, 1 h p.i.): 5.0
SUV mean Lymph node (third listed lymph node, 3 h p.i.): 4.1
Compound: O=C([O-])CN1CCN(CC(=O)[O-])CCN(Cc2ccc(C(=O)NCC3CCC(C(=O)NC(Cc4ccc5ccccc5c4)C(=O)NCCCCC(NC(=O)NC(CCC(=O)O)C(=O)O)C(=O)O)CC3)cc2)CCN(CC(=O)[O-])CC1.[68Ga+3] (centres unmarked) [^68Ga-CA028]
